“And” between values parts separate entries of the source, which are not always exact repeats. Identical values can stand only once.
System: WM3248 melanoma cells, 486 antibodies
Assay: Reverse phase protein arrays (RPPA)
Type: cell-based, Human
Description: Pellets were snap frozen in liquid nitrogen and shipped to MD Anderson Cancer Center core RPPA facility for RPPA analysis (Table S5). Three biological replicates for each sample were generated.
Nomenclatures on the RPPA heatmaps: name_of_antibody.species_of_antibody.status_of_antibody. V - antibody validated; C - validation of antibody in progress; Q - antibody nonspecific; E – under evaluation; antibodies raised in M - mouse, G - goat, R - rabbit, or T - rat.

[1] = Norm_10, replicates 1-3 and Average, relative to Norm_0

CN(C)c1cccc(Nc2cc(-c3ccccc3)nc(C3CCNCC3)n2)c1 [ARN22089, N1,N1-dimethyl-N3-(6-phenyl-2-(piperidin-4-yl)pyrimidin-4-yl)benzene-1,3-diamine]
A.Raf.R.V RPPA signal, normalized [1]: 1.018 and 0.886 and 0.845 and 0.916 | A.Raf_pS299.R.C RPPA signal, normalized [1]: 0.956 and 1.046 and 0.963 and 0.988 | ACC1.R.C RPPA signal, normalized [1]: 0.867 and 0.964 and 1.014 | ACC_pS79.R.V RPPA signal, normalized [1]: 1.238 and 0.635 and 0.956 and 0.943 | ACLY_pS455.R.V RPPA signal, normalized [1]: 1.247 and 1.003 and 1.249 and 1.166 | ACSL1.R.V RPPA signal, normalized [1]: 1.119 and 1.062 and 0.954 | ACVRL1.R.C RPPA signal, normalized [1]: 0.974 and 1.028 and 1.030 | ADAR1.M.V RPPA signal, normalized [1]: 1.080 and 1.272 and 0.921 | ALKBH5.R.V RPPA signal, normalized [1]: 1.021 and 1.291 and 1.103 and 1.138 | AMPK.a2_pS345.R.V RPPA signal, normalized [1]: 0.954 and 0.956 and 0.960 | AMPKa.R.C RPPA signal, normalized [1]: 1.010 and 0.920 and 1.002 and 0.977 | AMPKa_pT172.R.C RPPA signal, normalized [1]: 3.569 and 0.222 and 0.796 and 1.529 | AR.R.V RPPA signal, normalized [1]: 0.751 and 0.934 and 0.920 | ARID1A.R.C RPPA signal, normalized [1]: 1.114 and 1.573 and 0.868 and 1.185 | ASNS.R.V RPPA signal, normalized [1]: 1.340 and 0.994 and 0.954 and 1.096 | ATM.R.V RPPA signal, normalized [1]: 0.847 and 0.838 and 0.979 and 0.888 | ATM_pS1981.R.V RPPA signal, normalized [1]: 0.930 and 1.145 | ATP5A.M.C RPPA signal, normalized [1]: 1.031 and 1.371 and 1.971 and 1.457 | ATP5H.R.V RPPA signal, normalized [1]: 0.974 and 1.346 and 1.188 and 1.169 | ATR.R.V RPPA signal, normalized [1]: 0.962 and 1.081 and 1.002 and 1.015 | ATRX.R.C RPPA signal, normalized [1]: 0.876 and 0.968 and 0.978 | ATR_pS428.R.C RPPA signal, normalized [1]: 1.008 and 0.851 and 1.012 and 0.957 | AceCS1.R.V RPPA signal, normalized [1]: 1.235 and 1.121 | Akt1.R.V RPPA signal, normalized [1]: 0.800 and 0.756 and 1.156 and 0.904 | Akt1_pS473.R.V RPPA signal, normalized [1]: 0.892 and 0.682 and 1.059 and 0.878 | Akt2.R.V RPPA signal, normalized [1]: 0.829 and 0.768 and 1.018 and 0.872 | Akt2_pS474.R.C RPPA signal, normalized [1]: 1.011 and 0.801 and 0.950 | Akt.R.V RPPA signal, normalized [1]: 0.830 and 0.878 (2×) and 0.925 | Akt_pS473.R.V RPPA signal, normalized [1]: 2.128 and 0.984 and 1.238 and 1.450 | Akt_pT308.R.V RPPA signal, normalized [1]: 1.187 and 1.056 and 1.185 and 1.143 | Ambra1_pS52.R.C RPPA signal, normalized [1]: 0.964 (2×) and 1.015 and 0.981 | Annexin.I.M.V RPPA signal, normalized [1]: 0.849 and 0.987 and 1.005 | Annexin.VII.M.V RPPA signal, normalized [1]: 0.985 and 1.189 and 0.954 | Atg3.R.V RPPA signal, normalized [1]: 0.983 and 0.993 and 0.963 | Atg4B.R.C RPPA signal, normalized [1]: 0.966 and 1.004 | Atg5.R.C RPPA signal, normalized [1]: 0.905 and 0.930 and 0.971 and 0.935 | Atg7.R.V RPPA signal, normalized [1]: 0.958 and 0.891 and 0.903 and 0.917 | Aurora.A.R.C RPPA signal, normalized [1]: 0.694 and 1.245 and 1.028 and 0.989 | Aurora.ABC_pT288_pT232_pT198.R.C RPPA signal, normalized [1]: 1.548 and 0.847 and 0.955 and 1.117 | Aurora.B.R.V RPPA signal, normalized [1]: 1.012 and 1.271 and 1.347 and 1.210 | Axl.R.V RPPA signal, normalized [1]: 1.047 and 0.637 and 0.861 and 0.848 | B7.H3.R.C RPPA signal, normalized [1]: 0.961 and 0.915 and 0.940 and 0.939 | B7.H4.R.C RPPA signal, normalized [1]: 0.943 and 0.916 and 1.001 and 0.953 | B.Raf.R.C RPPA signal, normalized [1]: 0.738 and 0.844 and 1.157 and 0.913 | B.Raf_pS445.R.V RPPA signal, normalized [1]: 0.940 and 0.823 and 0.918 and 0.894 | BAP1.M.V RPPA signal, normalized [1]: 0.893 and 1.010 and 1.204 | BCL2A1.R.V RPPA signal, normalized [1]: 0.914 and 2.333 and 1.252 and 1.499 | BMK1.Erk5_pT218_Y220.R.V RPPA signal, normalized [1]: 0.935 and 0.870 and 0.918 | BRCA1.M.C RPPA signal, normalized [1]: 0.931 and 1.056 and 1.010 | BRD4.R.V RPPA signal, normalized [1]: 1.134 and 1.372 and 0.806 and 1.104 | Bad_pS112.R.V RPPA signal, normalized [1]: 1.129 and 0.968 and 1.064 and 1.054 | Bak.R.C RPPA signal, normalized [1]: 1.051 and 0.994 and 0.952 and 0.999 | Bax.R.V RPPA signal, normalized [1]: 0.935 and 1.085 and 1.013 and 1.011 | Bcl2.R.C RPPA signal, normalized [1]: 0.991 and 1.244 and 1.141 and 1.125 | Bcl.xL.R.V RPPA signal, normalized [1]: 0.890 and 1.164 and 1.151 | Beclin.R.C RPPA signal, normalized [1]: 0.901 and 1.245 and 1.080 | BiP.GRP78.M.C RPPA signal, normalized [1]: 0.879 and 1.117 and 1.006 and 1.001 | Bid.R.C RPPA signal, normalized [1]: 0.866 and 0.980 and 0.948 and 0.931 | Bim.R.V RPPA signal, normalized [1]: 0.847 and 0.884 and 0.890 and 0.874 | X4E.BP1.R.V RPPA signal, normalized [1]: 1.207 and 0.505 and 0.892 and 0.868 | X4E.BP1_pS65.R.V RPPA signal, normalized [1]: 0.934 and 1.191 and 1.054 | X4E.BP1_pT37_T46.R.V RPPA signal, normalized [1]: 0.921 and 1.081 and 1.234 and 1.079 | X14.3.3.zeta.R.V RPPA signal, normalized [1]: 1.058 and 1.063 | X14.3.3βR.V RPPA signal, normalized [1]: 0.989 and 1.030 and 1.010 (2×) | X14.3.3εM.C RPPA signal, normalized [1]: 0.934 and 0.986 and 1.121 and 1.013 | X53BP1.R.V RPPA signal, normalized [1]: 0.994 and 0.931 and 0.923 | b.Actin.R.C RPPA signal, normalized [1]: 0.850 and 1.249 and 1.164 | b.Catenin.R.V RPPA signal, normalized [1]: 0.881 and 0.923 | b.Catenin_pT41_S45.R.V RPPA signal, normalized [1]: 1.016 and 0.989 and 1.006 and 1.004 | c.Abl.R.V RPPA signal, normalized [1]: 1.105 and 1.008 and 1.020 | c.Abl_pY412.R.C RPPA signal, normalized [1]: 0.873 and 0.871 and 0.928 | c.IAP2.R.C RPPA signal, normalized [1]: 1.099 and 1.057 | C.Raf.R.C normalized signal (Norm_10 Average): 0.862 | C.Raf_pS338.R.V normalized signal (Norm_10 Average): 0.971 | CA9.R.C normalized signal (Norm_10 Average): 0.943 | CD2.M.C normalized signal (Norm_10 Average): 0.963 | CD4.R.V normalized signal (Norm_10 Average): 0.931 | CD5.M.C normalized signal (Norm_10 Average): 1.007 | CD20.R.C normalized signal (Norm_10 Average): 1.296 | CD26.R.V normalized signal (Norm_10 Average): 1.007 | CD29.M.V normalized signal (Norm_10 Average): 0.953

— paper PMC9127750, “Structure-based design of CDC42 effector interaction inhibitors for the treatment of cancer” (Cell reports, 2022)
